Data reported in patent US9663513B2, “Pyrimidine PDE10 inhibitors” (Merck Sharp & Dohme Corp., priority 2012, dated 2017).

Molecular target: human PDE10A2 (Homo sapiens (Human), UniProt Q9Y233)
Experiment: PDE10 fluorescence polarization (IMAP FP) inhibition assay
Type: biochemical
Conditions: human PDE10A2 from transfected AD293 cells; FAM-labeled cAMP 50 nM; apparent inhibition constant; read-out: PDE10A Ki
Experimental: The activity of the compounds in accordance with the present invention as PDE10 inhibitors may be readily determined without undue experimentation using a fluorescence polarization (FP) methodology that is well known in the art (Huang, W., et al., J. Biomol Screen, 2002, 7: 215).
In a typical experiment the PDE10 inhibitory activity of the compounds of the present invention was determined in accordance with the following experimental method. PDE10A2 was amplified from human fetal brain cDNA (Clontech, Mountain View, Calif.) using a forward primer corresponding to nucleotides 56-77 of human PDE10A2 (Accession No. AF127480, Genbank Identifier 4894716), containing a Kozak consensus sequence, and a reverse primer corresponding to nucleotides 2406-2413 of human PDE10A2 (Accession No. AF127480, Genbank Identifier 4894716). Amplification with Easy-A polymerase (Stratagene, La Jolla, Calif.) was 95° C. for 2 minutes followed by thirty three cycles of 95° C. for 40 seconds, 55° C. for 30 seconds, and 72° C. for 2 minutes 48 seconds. Final extension was 72° C. for 7 minutes. The PCR product was TA cloned into pcDNA3.2-TOPO (Invitrogen, Carlsbad, Calif.) according to standard protocol. AD293 cells with 70-80% confluency were transiently transfected with human PDE10A2/pcDNA3.2-TOPO using Lipofectamine 2000 according to manufacturer specifications (Invitrogen, Carlsbad, Calif.). Cells were harvested 48 hours post-transfection and lysed by sonication (setting 3, 10×5 sec pulses) in a buffer containing 20 mM HEPES, 1 mM EDTA and protease inhibitor cocktail (Roche). Lysate was collected by centrifugation at 75,000×g for 20 minutes. Supernatant containing the cytoplasmic fraction was used for evaluation of PDE10A2 activity. The fluorescence polarization assay for cyclic nucleotide phosphodiesterases was performed using an IMAP® FP kit supplied by Molecular Devices, Sunnyvale, Calif. (product # R8139). IMAP® technology has been applied previously to phosphodiesterase assays (Huang, W., et al., J. Biomol Screen, 2002, 7: 215). Assays were performed at room temperature in 384-well microtiter plates with an incubation volume of 20.2 μL. Solutions of test compounds were prepared in DMSO and serially diluted with DMSO to yield 8 μL of each of 10 solutions differing by 3-fold in concentration, at 32 serial dilutions per plate. […] 0% of inhibition is determined by using DMSO (1% final concentrations).
A Labcyte Echo 555 (Labcyte, Sunnyvale, Calif.) is used to dispense 200 nL from each well of the titration plate to the 384 well assay plate. A solution of enzyme (1/1600 dilution from aliquots; sufficient to produce 20% substrate conversion) and a separate solution of FAM-labeled cAMP PDE from Molecular Devices (product # R7506), at a final concentration of 50 nM are made in the assay buffer (10 mM Tris HCl, pH 7.2, 10 mM MgCl2, 0.05% NaN3 0.01% Tween-20, and 1 mM DTT). The enzyme and the substrate are then added to the assay plates in two consecutive additions of 10 μL, and then shaken to mix. The reaction is allowed to proceed at room temperature for 30 minutes. […] The enzymatic reaction is stopped by addition of 60 μL of the binding solution to each well of the assay plates and the plates are sealed and shaken for 10 seconds. The plate was incubated at room temperature for at least one hour prior to determining the fluorescence polarization (FP). The parallel and perpendicular fluorescence of each well of the plate was measured using a Perkin Elmer EnVision™ plate reader (Waltham, Mass.).
Fluorescence polarization (mP) was calculated from the parallel (S) and perpendicular (P) fluorescence of each sample well and the analogous values for the median control well, containing only substrate (So and Po), using the following equation: Polarization(mP)=1000*(S/So−P/Po)/(S/So+P/Po).
Dose-inhibition profiles for each compound were characterized by fitting the mP data to a four-parameter equation given below.

Sequence of human PDE10A2 (Q9Y233 267-1055): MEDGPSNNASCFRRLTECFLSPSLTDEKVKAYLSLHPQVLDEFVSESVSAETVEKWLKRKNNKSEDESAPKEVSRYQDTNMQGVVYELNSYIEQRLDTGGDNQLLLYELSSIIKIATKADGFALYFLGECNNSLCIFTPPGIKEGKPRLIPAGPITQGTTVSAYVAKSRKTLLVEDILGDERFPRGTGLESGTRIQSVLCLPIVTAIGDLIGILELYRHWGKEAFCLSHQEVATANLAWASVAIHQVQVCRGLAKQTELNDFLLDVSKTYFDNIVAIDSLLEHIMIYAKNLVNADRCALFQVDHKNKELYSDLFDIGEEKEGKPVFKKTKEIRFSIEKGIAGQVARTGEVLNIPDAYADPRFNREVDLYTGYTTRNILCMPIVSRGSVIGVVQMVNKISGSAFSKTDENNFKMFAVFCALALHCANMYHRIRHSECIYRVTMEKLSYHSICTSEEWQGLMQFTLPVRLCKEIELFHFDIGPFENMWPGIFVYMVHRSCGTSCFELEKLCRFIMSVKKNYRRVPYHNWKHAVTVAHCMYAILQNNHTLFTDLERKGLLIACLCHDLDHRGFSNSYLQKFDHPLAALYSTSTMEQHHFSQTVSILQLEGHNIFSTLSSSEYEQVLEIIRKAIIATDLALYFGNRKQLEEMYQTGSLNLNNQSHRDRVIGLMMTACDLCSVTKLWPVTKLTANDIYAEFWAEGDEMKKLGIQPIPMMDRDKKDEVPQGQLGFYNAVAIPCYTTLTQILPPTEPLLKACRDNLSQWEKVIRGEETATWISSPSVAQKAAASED

Row | Ki [pM] | Compound
1 | 790 | COc1ccc([C@H]2C[C@@H]2COc2nc(C)ncc2-c2cc(Cl)ncc2OC)nc1 [Example 111, 5-(2-chloro-5-methoxypyridin-4-yl)-4-(((1S,2S)-2-(5-methoxypyridin-2-yl)cyclopropyl)methoxy)-2-methylpyrimidine]
2 | 240 | CCc1ccc([C@H]2C[C@@H]2COc2nc(C)ncc2-c2cn(C)nc2C(C)O)nc1 (stereo partly drawn) [Example 163, 1-(4-(4-(((1S,2S)-2-(5-ethylpyridin-2-yl)cyclopropyl)methoxy)-2-methylpyrimidin-5-yl)-1-methyl-1H-pyrazol-3-yl)ethanol]
3 | 140 | CCOc1cc(-c2cnc(C)nc2OC[C@H]2C[C@@H]2c2ccc(OC)cn2)ccn1 [Example 75, 5-(2-ethoxypyridin-4-yl)-4-(((1S,2S)-2-(5-methoxypyridin-2-yl)cyclopropyl)methoxy)-2-methylpyrimidine]
4 | 40 | CCOc1cccc(-c2cnc(C)nc2OC[C@H]2C[C@@H]2c2ccc3ccccc3n2)c1 (single isomer, unassigned) [Example 40, 2,2,2-trifluoroacetate]
5 | 17800 | Cc1ncc(-c2ccc(C(C)(C)O)nc2)c(OC[C@H]2C[C@@H]2c2ccc(C#N)cn2)n1 [Example 182, 6-((1S,2S)-2-((5-(6-(2-hydroxypropan-2-yl)pyridin-3-yl)-2-methylpyrimidin-4-yloxy)methyl)cyclopropyl)nicotinonitrile]
6 | 200 | Cc1cccc([C@H]2C[C@@H]2COc2nc(C)ncc2-c2ccc(C(C)(C)O)nc2)n1 (single isomer, unassigned) [Example 175]
7 | 7850 | Cc1ccc([C@H]2C[C@@H]2COc2nc(C)ncc2[C@]2(F)CC[C@@H](O)CC2)nc1 [Example 210, (trans)-4-Fluoro-4-(2-methyl-4-(((1S,2S)-2-(5-methylpyridin-2-yl)cyclopropyl)methoxy)pyrimidin-5-yl)cyclohexanol]
8 | 1190 | COc1ccc([C@H]2C[C@@H]2COc2nc(C)ncc2-c2ccc(C#N)cc2)nc1 [Example 171, 4-(4-(((1S,2S)-2-(5-methoxypyridin-2-yl)cyclopropyl)methoxy)-2-methylpyrimidin-5-yl)benzonitrile]
9 | 15400 | CC[C@]1(O)CC[C@H](c2cnc(C)nc2OC[C@H]2C[C@@H]2c2ccc(C)cn2)CC1 [Example 215, (trans)1-Ethyl-4-(2-methyl-4-(((1S,2S)-2-(5-methylpyridin-2-1)cyclopropyl)methoxy)pyrimidin-5-yl)cyclohexanol]
10 | 460 | Cc1ccc([C@H]2C[C@@H]2COc2nc(C)ncc2-c2cc(F)cc(F)c2)nc1 [Example 7, 5-(3,5-difluorophenyl)-2-methyl-4-(((1S,2S)-2-(5-methylpyridin-2-yl)cyclopropyl)methoxy)pyrimidine]
11 | 940 | COc1ccc([C@H]2C[C@@H]2COc2nc(C)ncc2-c2ccc(C#N)n2C)nc1 [Example 109, 5-(4-(((1S,2S)-2-(5-methoxypyridin-2-yl)cyclopropyl)methoxy)-2-methylpyrimidin-5-yl)-1-methyl-1H-pyrrole-2-carbonitrile]
12 | 3750 | COc1ccc([C@H]2C[C@@H]2COc2nc(C)ncc2C2CCC(=O)CC2)nc1 [Example 189, 4-(4-(((1S,2S)-2-(5-methoxypyridin-2-yl)cyclopropyl)methoxy)-2-methylpyrimidin-5-yl)cyclohexanone]
13 | 370 | Cc1ccc([C@H]2C[C@@H]2COc2nc(C)ncc2-c2ccc(C(O)C(C)C)nc2)nc1 (stereo partly drawn) [Example 139, 2-methyl-1-(5-(2-methyl-4-(((1S,2S)-2-(5-methylpyridin-2-yl)cyclopropyl)methoxy)pyrimidin-5-yl)pyridin-2-yl)propan-1-ol]
14 | 940 | COc1ccc([C@H]2C[C@@H]2COc2nc(C)ncc2-c2ccc(O)nc2)nc1 [Example 69, 5-(4-(((1S,2S)-2-(5-methoxypyridin-2-yl)cyclopropyl)methoxy)-2-methylpyrimidin-5-yl)pyridin-2-ol]
15 | 21500 | COc1ccc([C@H]2C[C@@H]2COc2nc(C)ncc2-c2nnn(C)n2)nc1 [Example 235, 4-(((1S,2S)-2-(5-methoxypyridin-2-yl)cyclopropyl)methoxy)-2-methyl-5-(2-methyl-2H-tetrazol-5-yl)pyrimidine]
16 | 180 | COc1ccc([C@H]2C[C@@H]2COc2nc(C)ncc2-c2ccnc(OC(C)C)c2)nc1 [Example 74, 5-(2-isopropoxypyridin-4-yl)-4-(((1S,2S)-2-(5-methoxypyridin-2-yl)cyclopropyl)methoxy)-2-methylpyrimidine]
17 | 860 | CCc1ccc(-c2cnc(C)nc2OC[C@H]2C[C@@H]2c2ccc(OC)cn2)cn1 [Example 85, 5-(6-ethylpyridin-3-yl)-4-(((1S,2S)-2-(5-methoxypyridin-2-yl)cyclopropyl)methoxy)-2-methylpyrimidine]
18 | 8350 | COc1ccc([C@H]2C[C@@H]2COc2nc(C)ncc2C2CCC(=O)C2)nc1 (stereo partly drawn) [Example 78]
19 | 5480 | COc1ccc([C@H]2C[C@@H]2COc2nc(C)ncc2[C@@H]2CC[C@@H](O)C2)nc1 [Example 80, (1R,3R)-3-(4-(((1S,2S)-2-(5-methoxypyridin-2-yl)cyclopropyl)methoxy)-2-methylpyrimidin-5-yl)cyclopentanol]
20 | 1060 | COc1ccc([C@H]2C[C@@H]2COc2nc(C)ncc2-c2ccc(C(=O)NCCO)cc2)nc1 [Example 107, N-(2-hydroxyethyl)-4-(4-(((1S,2S)-2-(5-methoxypyridin-2-yl)cyclopropyl)methoxy)-2-methylpyrimidin-5-yl)benzamide]
21 | 2680 | COc1ccc([C@H]2C[C@@H]2COc2nc(C)ncc2-c2ccc(C(=O)O)nn2)nc1 [Example 99, 6-(4-(((1S,2S)-2-(5-methoxypyridin-2-yl)cyclopropyl)methoxy)-2-methylpyrimidin-5-yl)pyridazine-3-carboxylic acid]
22 | 1420 | CCn1nnc(-c2ccc(-c3cnc(C)nc3OC[C@H]3C[C@@H]3c3ccc(OC)cn3)cc2)n1 [Example 225, 5-(4-(2-ethyl-2H-tetrazol-5-yl)phenyl)-4-(((1S,2S)-2-(5-methoxypyridin-2-yl)cyclopropyl)methoxy)-2-methylpyrimidine]
23 | 160 | CCC(O)c1ccc(-c2cnc(C)nc2OC[C@H]2C[C@@H]2c2ccc(C)cn2)cn1 (stereo partly drawn) [Example 143, 1-(5-(2-methyl-4-(((1S,2S)-2-(5-methylpyridin-2-yl)cyclopropyl)methoxy)pyrimidin-5-yl)pyridin-2-yl)propan-1-ol]
24 | 8570 | Cc1ncc(-c2ccc(C(C)(C)O)nc2)c(OC[C@@H]2C[C@H]2c2ccc(Br)cn2)n1 [Example 124, 2-(5-(4-(((1R,2R)-2-(5-bromopyridin-2-yl)cyclopropyl)methoxy)-2-methylpyrimidin-5-yl)pyridin-2-yl)propan-2-ol]
25 | 22900 | COc1ccc([C@H]2C[C@@H]2COc2nc(C)ncc2-c2ncno2)nc1 [Example 254, 5-(4-(((1S,2S)-2-(5-methoxypyridin-2-yl)cyclopropyl)methoxy)-2-methylpyrimidin-5-yl)-1,2,4-oxadiazole]

Row | Compound | Ki [pM]
26 | Cc1ccc([C@H]2C[C@@H]2COc2nc(C)ncc2-c2cccc(OC(C)C)c2)nc1 [Example 3, 5-(3-isopropoxyphenyl)-2-methyl-4-(((1S,2S)-2-(5-methylpyridin-2-yl)cyclopropyl)methoxy)pyrimidine] | 300
27 | Cc1ccc([C@H]2C[C@@H]2COc2nc(C)ncc2-c2ccc(C(O)C(F)(F)F)nc2)nc1 (stereo partly drawn) [Example 146] | 250
